From PubChem BioAssay AID1259407 (Chemical Carcinogenesis Research Information System (CCRIS), 2018) come the findings set out here.

The subject of the data set is CCRIS mutagenicity, Ames/micronucleus/aberration tests. Put plainly: CCRIS mutagenicity studies.
[1] abbreviates: Test System: AMES SALMONELLA TYPHIMURIUM, Strain/Indicator: TA98, Metabolic Activation: NONE, Method: PREINCUBATION
[2] abbreviates: Test System: AMES SALMONELLA TYPHIMURIUM, Strain/Indicator: TA100, Metabolic Activation: NONE, Method: PREINCUBATION
The mark [3] stands for this setting: Test System: AMES SALMONELLA TYPHIMURIUM, Strain/Indicator: TA1535, Metabolic Activation: NONE, Method: PREINCUBATION
Where [4] appears, read: Test System: AMES SALMONELLA TYPHIMURIUM, Strain/Indicator: TA1537, Metabolic Activation: NONE, Method: PREINCUBATION
The mark [5] stands for this setting: Test System: AMES SALMONELLA TYPHIMURIUM, Strain/Indicator: TA1538, Metabolic Activation: NONE, Method: PREINCUBATION
[6] abbreviates: Test System: AMES SALMONELLA TYPHIMURIUM, Strain/Indicator: TA98, Metabolic Activation: NONE, Method: STANDARD PLATE.
The mark [7] stands for this setting: Test System: AMES SALMONELLA TYPHIMURIUM, Strain/Indicator: TA98, Metabolic Activation: S-9, Method: STANDARD PLATE.
Where [8] appears, read: Test System: AMES SALMONELLA TYPHIMURIUM, Strain/Indicator: TA100, Metabolic Activation: NONE, Method: STANDARD PLATE.
The mark [9] stands for this setting: Test System: AMES SALMONELLA TYPHIMURIUM, Strain/Indicator: TA98, Metabolic Activation: RAT, LIVER, S-9, AROCLOR 1254, Method: STANDARD PLATE.
The mark [10] stands for this setting: Test System: AMES SALMONELLA TYPHIMURIUM, Strain/Indicator: TA100, Metabolic Activation: RAT, LIVER, S-9, AROCLOR 1254, Method: STANDARD PLATE.
[11] abbreviates: Test System: AMES SALMONELLA TYPHIMURIUM, Strain/Indicator: TA1535, Metabolic Activation: NONE, Method: STANDARD PLATE.
[12] abbreviates: Test System: AMES SALMONELLA TYPHIMURIUM, Strain/Indicator: TA1535, Metabolic Activation: RAT, LIVER, S-9, AROCLOR 1254, Method: STANDARD PLATE.
Setting [13] is: Test System: AMES SALMONELLA TYPHIMURIUM, Strain/Indicator: TA1537, Metabolic Activation: NONE, Method: STANDARD PLATE.
Setting [14] is: Test System: AMES SALMONELLA TYPHIMURIUM, Strain/Indicator: TA1537, Metabolic Activation: RAT, LIVER, S-9, AROCLOR 1254, Method: STANDARD PLATE.

Activity calls are given as the source filed them. No rule for the calls is given here.

As for `O=C(O)C(F)(F)C(F)(Cl)C(F)(F)C(F)(Cl)C(F)(F)Cl` (stereo not drawn), the mutagenic call is, setting by setting: under setting [1], “inactive; negative”; (Test System: AMES SALMONELLA TYPHIMURIUM, Strain/Indicator: TA98, Metabolic Activation: RAT, LIVER, S-9, Method: PREINCUBATION) “inactive; negative”; under setting [2], “inactive; negative”; (Test System: AMES SALMONELLA TYPHIMURIUM, Strain/Indicator: TA100, Metabolic Activation: RAT, LIVER, S-9, Method: PREINCUBATION) “inactive; negative”; under setting [3], “inactive; negative”; (Test System: AMES SALMONELLA TYPHIMURIUM, Strain/Indicator: TA1535, Metabolic Activation: RAT, LIVER, S-9, Method: PREINCUBATION) “inactive; negative”. Also, the mutagenic call is, setting by setting: under setting [4], “inactive; negative”; (Test System: AMES SALMONELLA TYPHIMURIUM, Strain/Indicator: TA1537, Metabolic Activation: RAT, LIVER, S-9, Method: PREINCUBATION) “inactive; negative”; under setting [5], “inactive; negative”; (Test System: AMES SALMONELLA TYPHIMURIUM, Strain/Indicator: TA1538, Metabolic Activation: RAT, LIVER, S-9, Method: PREINCUBATION) “inactive; negative”; (Test System: CHINESE HAMSTER OVARY, Strain/Indicator: CHO-K1-BH4 (HGPRT), Metabolic Activation: NONE, Method: STANDARD PLATE) “inactive; negative”; (Test System: CHINESE HAMSTER OVARY, Strain/Indicator: CHO-K1-BH4 (HGPRT), Metabolic Activation: RAT, LIVER, S-9, Method: STANDARD PLATE) “inactive; negative”. Besides, where the note is “Test System: UDS RODENT HEPATOCYTES, Strain/Indicator: THY INCORP (NON-S-PHASE), Metabolic Activation: NONE, Method: AUTORADIOGRAPHY”, the mutagenic call is “inactive; negative”.

As for `ICI`, the mutagenic call (Test System: AMES SALMONELLA TYPHIMURIUM, Strain/Indicator: TA102, Metabolic Activation: NONE, Method: STANDARD PLATE) was “inactive; negative”; the mutagenic call (Test System: AMES SALMONELLA TYPHIMURIUM, Strain/Indicator: TA2638, Metabolic Activation: NONE, Method: STANDARD PLATE) was “inactive; negative”; the mutagenic call (Test System: E. COLI, Strain/Indicator: WP2 (PKM101), Metabolic Activation: NONE, Method: STANDARD PLATE) is “inactive; negative”; the mutagenic call (Test System: E. COLI, Strain/Indicator: WP2 UVRA (PKM101), Metabolic Activation: NONE, Method: STANDARD PLATE) was “active; positive”.

As to `O=[N+]([O-])c1cccc(Cl)c1F`, where the note is “End Point: IN VITRO CHROMOSOMAL ABERRATIONS, Test System: CHL CELLS, Metabolic Activation: RAT, LIVER, S-9, SODIUM PHENOBARBITAL AND 5,6-BENZOFLAVONE”, the mutagenic call is “active; positive (structural changes)”.

Take `CC(C)(C)c1cc(-c2ccccc2)ccc1NO`: the mutagenic call reads like this: under setting [6], “active; positive”; under setting [7], “active; positive”; under setting [8], “active; positive”; (Test System: AMES SALMONELLA TYPHIMURIUM, Strain/Indicator: TA100, Metabolic Activation: S-9, Method: STANDARD PLATE) “active; positive”.

With `[Cl][Ce]([Cl])[Cl]`, for the setting “Test System: E. COLI, Strain/Indicator: WP2 UVRA, Metabolic Activation: NONE, Method: SPOT TEST”, the mutagenic call is “inactive; negative”.

As for `CCCCCCCCCCCCOC(=O)CCSCCC(=O)OCCCCCCCCCCCC`, the mutagenic call is, setting by setting: under setting [6], “inactive; negative”; under setting [9], “inactive; negative”; under setting [8], “inactive; negative”; under setting [10], “inactive; negative”; under setting [11], “inactive; negative”; under setting [12], “inactive; negative”. Further, the mutagenic call under setting [13] is “inactive; negative”; the mutagenic call under setting [14] was “inactive; negative”; the mutagenic call (Test System: AMES SALMONELLA TYPHIMURIUM, Strain/Indicator: TA1538, Metabolic Activation: NONE, Method: STANDARD PLATE) was “inactive; negative”; the mutagenic call (Test System: AMES SALMONELLA TYPHIMURIUM, Strain/Indicator: TA1538, Metabolic Activation: RAT, LIVER, S-9, AROCLOR 1254, Method: STANDARD PLATE) is “inactive; negative”; the mutagenic call (Test System: E. COLI, Strain/Indicator: WP2, Metabolic Activation: NONE, Method: STANDARD PLATE) was “inactive; negative”; the mutagenic call (Test System: E. COLI, Strain/Indicator: WP2, Metabolic Activation: RAT, LIVER, S-9, AROCLOR 1254, Method: STANDARD PLATE) was “inactive; negative”.

For `CC(C)=CCCC(C)CCO` (stereo not drawn), the mutagenic call runs as follows: under setting [6], “inactive; negative”; under setting [7], “inactive; negative”; under setting [8], “inactive; negative”.

For `CSC[C@H](NC(=O)C(C)(C)SC)C(=O)O`, the mutagenic call by setting is: under setting [1], “inactive; negative”; under setting [2], “inactive; negative”; under setting [3], “inactive; negative”; under setting [4], “inactive; negative”; under setting [5], “inactive; negative”; (Test System: E. COLI, Strain/Indicator: WP2, Metabolic Activation: NONE, Method: PREINCUBATION) “inactive; negative”. Besides, the mutagenic call (Test System: E. COLI, Strain/Indicator: WP2 UVRA, Metabolic Activation: NONE, Method: PREINCUBATION) is “inactive; negative”.

`CCCCS(=O)(=O)n1ncc(Cl)c(Cl)c1=O`: the mutagenic call runs as follows: under setting [6], “inactive; negative”; under setting [9], “inactive; negative”; under setting [8], “active; positive”; under setting [10], “active; positive”; under setting [11], “inactive; negative”; under setting [12], “active; positive”. In addition, the mutagenic call reads like this: under setting [13], “inactive; negative”; under setting [14], “inactive; negative”.
